The test system of experiment [1] is human gastric cancer MGC803. In words: Human gastric cancer MGC803 transplanted tumor in nude mice. The class given is in vivo, BALB/C nude mice. Particulars: MGC803, 200 mg/kg ip × 14. How it is done:
A human gastric cancer MGC803 model transplanted into nude mice was used in the experiment to investigate the anti-tumor effect of test compounds.
Preparation: The compound was prepared as the injection at the desired concentration with sterile normal saline, prior to administration.
Animal strain: BALB/C nude mice (SPF grade), weight: 19-21 g, gender: male.
Number of animals in each treatment group: 8; number of animals in the control group: >12.
The tumor blocks of human gastric cancer MGC803 with good growth were cut into uniform small pieces of 3 mm under sterile conditions, and then subcutaneously inoculated into the right armpit of each mouse with a cannula. These mice were divided into 9 groups, 8 mice for each treatment group, while more than 12 mice were included in the control group.
14 days after inoculation, the average volume of the tumor block was about 100 mm^3. The animals were regrouped based on the size of the tumor, and the animals with tumors that were too large and too small were sifted out. For each group, the average volume of tumors was basically the same, and then the mice were initially treated with test compounds. The mice were intraperitoneally injected once a day for 14 days, at a dosage of 0.2 mL/20 g body weight. From the 14th day of inoculation, the long diameter a (mm) of the tumor, together with the perpendicular short diameter b (mm), was measured using a digital electronic caliper, twice a week. The calculation formula of tumor volume is: TV=ab^2/2, and the formula for calculating the relative tumor volume is RTV=Vt/Vo, wherein Vo denotes the tumor volume measured when the mice were divided into groups(i.e. d1), and Vt is the tumor volume from each measurement.
The result determination is based on the following formula: […]

Experiment [2] has as its system LLC (mouse lung cancer cells). Kind of experiment: Enrichment of CD8+ cytotoxic T lymphocytes in tumor tissue, Lewis non-small cell lung cancer model of mice. Particulars: 400 mg/kg ip once a day for 10 days, CD8+ immunohistochemistry. The class given is in vivo.
Experiment [3] deals with LLC (mouse lung cancer cells). The description is as above. The class given is in vivo. Particulars: 400 mg/kg ip once a day for 10 days; for The ratio of CD8^+ in total immune cells of tumor tissues (%): flow cytometry; for The ratio of distribution area in tumor tissues (%): CD8+ immunohistochemistry. The procedure: LLC (mouse lung cancer cells) were a mouse Lewis lung cancer cells.
The modeling method for LLC cell lung cancer in mice was as follows:
LLC cells were cultured in the general medium containing 10% fetal bovine serum and 100 μg/mL of double antibody (penicillin±streptomycin), and then cultivated in a 37° C., 5% CO2 cell incubator for routine incubation. LLC cells, that had grown to logarithmic phase, were digested with 0.25% trypsin (containing EDTA) to form a cell suspension, which was centrifuged at 1000 rpm/min for 3 min. The supernatant was discarded, and cell precipitates were collected, that were resuspended in culture medium without serum and double antibody. The cell suspension was further centrifuged to adjust the volume under the same conditions with the aid of cell counting, so as to prepare a cell suspension at a concentration of […] was injected into the right abdomen of each mouse, to complete the inoculation of tumor cells. The tumor was allowed to grew about 10 days, and the volume reached around 100 mm^3, before the mice were treated with test compounds.
Drug preparation: compounds 1-13 of the present invention were respective prepared into an injection with injection water.
Experimental methods: The model mice with LLC cell lung cancer were treated by intraperitoneal administration of 400 mg/kg injection containing the compound of the present invention. The model mice were divided into a negative control group (model mice only receiving equal volume of injection water by intraperitoneal administration) and treatment groups (model mice receiving the injection prepared with the compound of the present invention by intraperitoneal administration). The intraperitoneal injection regimen was carried out by injecting once a day at the pre-determined time. Before administration, the mice were weighed, and then treated with the injection at a dosage of 10 mL/kg, After successive administration for 10 days, that is, on the 10th day after receiving treatment, the mice were sacrificed, and the subcutaneous tumors were stripped to detect the ratio of cytotoxic T lymphocyte antigen CD8^+ in tumor tissues of the negative group and the treatment group by flow cytometry.
CD8^+ tumor-infiltrating lymphocytes in tumor tissues were detected by flow cytometry. The specific steps were as follows:
The mice were sacrificed, and then the abdominal epidermis of the mice was cut open using ophthalmic scissors, to fully expose the subcutaneous tumors. The subcutaneous tumor tissues on the right side of the mouse's abdomen were gradually peeled off with tweezers and ophthalmic scissors. After rinsing with PBS, the stripped tumor tissues were cut into about 1 mm using ophthalmic scissors, and then placed in 3 mL of PBS buffer containing 100 μg/mL of hyaluronidase. A centrifuge tube containing a dispersed liquid was placed in a water bath and kept at 37° C. for 20 min. A pipette was used to blow and shake the digestive tumor tissues every 5 minutes to fully digest. The dispersed liquid containing undigested tumor tissues was filtered through a 70 μm stainless steel cell screen, and the remaining undigested tumor tissues were ground using a push rod of 20 mL syringe on 70 μm cell screen and rinsed 5 times with 1 mL of PBS while grinding. The cell suspension passing the cell screen was transferred to a 15 mL centrifuge tube, and centrifuged at 4000 rpm for 3 min. Then, cell precipitates were collected, to which was added 2 mL of red cell lysis buffer, and rested for 10 min, followed by centrifuging at 4000 rpm for 3 min. After washing with PBS, the cells were resuspended by adding 2-3 mL of PBS.
An appropriate amount of cell suspension was used as the sample for flow cytometry, and after counting, the cell suspension was adjusted to have a concentration of 5×10^6/mL. 100 μL of cell suspension was added to a test tube with a pipettor. […]
(Flow cytometry measures light scatter and fluorescence of single cells or particles in a stream.)

Experiment [4] has as its system nonfusion human umbilical vein endothelial cells (HUVEC). Kind of experiment: TMT quantitative proteomics on nonfusion HUVEC. Particulars: 10 μM; for Differentially expressed proteins: more than 1.5 times or less than 0.67 times vs control; for Down-regulation / Up-regulation: number of proteins. The format is cell-based. How it is done: Nonfusion human umbilical vein endothelial cells (HUVEC) were used to simulate new tumor blood vessels, while confluent HUVECs were used to simulate normal blood vessels, to construct experimental models. Two different HUVECs were treated with the compound at the same dosage of 10 μM, to simulate the fusion cell state, and proteome samples were prepared. After preparation of peptide segments, the segments were labelled with TMT, and a quantitative proteomics analysis was carried out. The efficiency of TMT labeling was higher than 99.4%, and a total of 28372 peptide segments from 4934 proteins were characterized using a strict 1% FDR limit. Among them, 4909 quantifiable proteins were identified, indicating reliable quality. The nonfusion treatment groups and the fusion treatment groups were compared with their respective control groups, and the control group was used as a reference, with a significant difference of more than 1.5 times or less than 0.67 times as the protein score standard.
The total cell proteins of the samples in nonfusion cell groups and fusion cell groups were extracted separately, and 2 μg of protein samples were subjected to quality analysis, The quantitative proteomics experiments were carried out, and the protein concentration assay was performed by quantitative grayscale measurement.
Data analysis: The human protein database (Scientific name: Homo sapiens, 9606) was downloaded from UniProt, MaxQuant (v 1.5.5.1) search engine was used to search for the database. A total of 4934 proteins (4909 quantitative proteins) and 28372 peptide segments were identified by TMT quantitative proteomics experiments, with a labeling efficiency of more than 99%, and the complete digestion occupied 86.3%.

SMILES strings stand for the structures. Marks after values point to notes of the source that are not given here.

As to `COc1ccc(/C=C(/C(=O)O)c2cc(OC)c(OC)c(OC)c2)c(O)c1O` [Compound 1, (E)-3-(2,3-dihydroxy-4-methoxyphenyl)-2-(3,4,5-trimethoxylphenyl)acrylic acid], in experiment [1], the “RTV (d 18)” value was 5.87 ± 0.63 and the “Tumor inhibitory rate %” value was 49.05^## %. The “The ratio of distribution area in tumor tissues (%)” value (“The ratio … in tumor tissues (%)” for short) in experiment [2] (400 mg/kg) was 6.265 ± 0.3673%. For the same compound, the “The ratio of CD8^+ in total immune cells of tumor tissues (%)” value (shortened to “The ratio of CD8^+ … (%)”) in experiment [3] (400 mg/kg) was determined as 0.0605 ± 0.0124%. In experiment [4], this compound yielded a Differentially expressed proteins of 323, a Down-regulation of 296 and an Up-regulation of 7.
`COc1cc(/C=C(/C(=O)O)c2cc(OC)c(OC)c(OC)c2)cc(OC)c1` [Compound 3, (E)-3-(3,5-dimethoxyphenyl)-2-(3,4,5-trimethoxyphenyl)acrylic acid]: in experiment [1], the “RTV (d 18)” value amounted to 4.79 ± 0.54 and the “Tumor inhibitory rate %” value is listed as 58.42^## %. Moreover, in experiment [3], the “The ratio … in tumor tissues (%)” value is reported as 6.731 ± 0.5692% and the “The ratio of CD8^+ … (%)” value was 0.0762 ± 0.0103%. In addition, in experiment [4], the Differentially expressed proteins was found to be 318, the Down-regulation is 312 and the Up-regulation is reported as 6.
`COc1ccc(/C=C(/C(=O)O)c2cc(OC)c(OC)c(OC)c2)cc1F` [Compound 4, (E)-3-(3-fluoro-4-methoxyphenyl)-2-(3,4,5-trimethoxyphenyl)acrylic acid]: in experiment [3], the “The ratio … in tumor tissues (%)” value is 6.872 ± 0.7633% and the “The ratio of CD8^+ … (%)” value turned out to be 0.0787 ± 0.0122%. Further, in experiment [4], the Differentially expressed proteins was found to be 307, the Down-regulation is recorded as 302 and the Up-regulation is 5.
In the case of `COc1ccc(/C=C(/C(=O)O)c2cc(OC)c(OC)c(OC)c2)cc1O` [Compound 6, (E)-3-(3-hydroxy-4-methoxyphenyl)-2-(3,4,5-trimethoxyphenyl)acrylic acid], in experiment [1], the “RTV (d 18)” value turned out to be 3.43 ± 0.51 and the “Tumor inhibitory rate %” value stood at 70.23%. Moreover, in experiment [1] (listed as compound 6), the “Tumor inhibitory rate %” value is on record as “best inhibitory effect on gastric cancer”. In experiment [2], the “The ratio … in tumor tissues (%)” value is listed as 7.249 ± 0.6689%. Besides, in experiment [3], the “The ratio of CD8^+ … (%)” value is 0.0814 ± 0.0118%. In experiment [4], this compound had a Differentially expressed proteins of 312, a Down-regulation of 307 and an Up-regulation of 5.
Take `COc1cc(/C(=C\c2cc(O)c(OC)c(F)c2)C(=O)O)cc(OC)c1OC` [Compound 8, (E)-3-(5-fluoro-3-hydroxy-4-methoxyphenyl)-2-(3,4,5-trimethoxyphenyl)acrylic acid]: in experiment [1], the “RTV (d 18)” value is 4.59 ± 0.47 and the “Tumor inhibitory rate %” value is 60.16^## %. Besides, the “The ratio … in tumor tissues (%)” value in experiment [2] was found to be 6.543 ± 0.7256%. In addition, the “The ratio of CD8^+ … (%)” value in experiment [3] came out at 0.0735 ± 0.0127%. In addition, in experiment [4], the Differentially expressed proteins turned out to be 317, the Down-regulation turned out to be 311 and the Up-regulation is recorded as 6.
In the case of `COc1ccc(/C=C(/C(=O)O)c2cc(OC)c(OC)c(OC)c2)c(F)c1O` [Compound 9, (E)-3-(2-fluoro-3-hydroxy-4-methoxyphenyl)-2-(3,4,5-trimethoxyphenyl)acrylic acid], the “The ratio … in tumor tissues (%)” value in experiment [2] came to 6.258 ± 0.6573%. For the same compound, the “The ratio of CD8^+ … (%)” value in experiment [3] was 0.0753 ± 0.0123%. In experiment [4], this compound registered a Differentially expressed proteins of 296, a Down-regulation of 291 and an Up-regulation of 5.
In the case of `COc1cc(/C=C(/C(=O)[O-])c2cc(OC)c(OC)c(OC)c2)cc(OC)c1F.[K+]` [Compound 10], in experiment [1], the “RTV (d 18)” value was found to be 4.21 ± 0.58 and the “Tumor inhibitory rate %” value is 63.45^# %. Further, in experiment [3], the “The ratio … in tumor tissues (%)” value was 5.847 ± 0.6349% and the “The ratio of CD8^+ … (%)” value is reported as 0.0623 ± 0.0114%. In experiment [4], this compound registered a Differentially expressed proteins of 315, a Down-regulation of 309 and an Up-regulation of 6.
On to `COc1cc(/C(=C\c2cc(O)c(OC)c(O)c2)C(=O)O)cc(OC)c1OC` [Compound 11, (E)-3-(3,5-dihydroxy-4-methoxyphenyl)-2-(3,4,5-trimethoxyphenyl)acrylic acid], for which, in experiment [1], the “RTV (d 18)” value came to 4.72 ± 0.61 and the “Tumor inhibitory rate %” value is reported as 59.03^## %. The “The ratio … in tumor tissues (%)” value in experiment [2] was 5.735 ± 0.5952%. Moreover, in experiment [3], the “The ratio of CD8^+ … (%)” value came out at 0.0653 ± 0.0122%. Also, in experiment [4], the Differentially expressed proteins turned out to be 317, the Down-regulation is 306 and the Up-regulation is reported as 11.

The record behind these values is patent publication US20240130988A1, “Use of stilbene compounds in the preparation of anti-tumor drugs” (Guangzhou AnHao Pharmaceutical Technology CO., LTD., priority 2022, published 2024).
